Test results taken from the supplement of paper PMC5908809.

How the values were obtained:
Assay in all cases: relative IC50 (inflection point of fitted viability curve, relative to fitted max inhibition); higher = less sensitive
Details in all cases: 72 h
[1] = tested on: IMC-1 (IL-2 20 ng/mL)
Procedure: (§1)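 Drug sensitivity and resistance testing: 5 concentrations over a 10,000-fold range, 72 h at 37 °C, viability by CellTiter-Glo normalised to DMSO and benzethonium chloride controls. IC50 is the inflection point of a logistic fit (min fixed at 0, max fitted), so it is relative to the fitted maximal inhibition. Kept only where fitted max inhibition is at least 50%.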

[2] = tested on: normal primary NK cells, pool 3 (3 donors) (IL-2 2.5 ng/mL)
Procedure: as §1

[3] = tested on: KAI3 (IL-2 2.5 ng/mL)
Procedure: as §1

[4] = tested on: DERL-7 (IL-2 2.5 ng/mL)
Procedure: as §1

[5] = tested on: NK-92 (IL-2 2.5 ng/mL)
Procedure: as §1

[6] = tested on: KHYG-1 (IL-2 2.5 ng/mL)
Procedure: as §1

[7] = tested on: YT (IL-2 2.5 ng/mL)
Procedure: as §1

[8] = tested on: NKL (IL-2 2.5 ng/mL)
Procedure: as §1

[9] = tested on: normal primary NK cells, pool 2 (3 donors) (IL-2 2.5 ng/mL)
Procedure: as §1

[10] = tested on: normal primary NK cells, pool 1 (3 donors), resting (IL-2 0 ng/mL)
Procedure: as §1

[11] = tested on: NK-YS (IL-2 2.5 ng/mL)
Procedure: as §1

[12] = tested on: SNK-6 (IL-2 2.5 ng/mL)
Procedure: as §1

[13] = tested on: normal primary NK cells, pool 1 (3 donors) (IL-2 2.5 ng/mL)
Procedure: as §1

Structure (SMILES) | relative IC50 [1] [nM] | relative IC50 [2] [nM] | relative IC50 [3] [nM] | relative IC50 [4] [nM] | relative IC50 [5] [nM] | relative IC50 [6] [nM] | relative IC50 [7] [nM] | relative IC50 [8] [nM] | relative IC50 [9] [nM] | relative IC50 [10] [nM] | relative IC50 [11] [nM] | relative IC50 [12] [nM] | relative IC50 [13] [nM]
O=P1(NCCCl)OCCCN1CCCl (stereo not drawn) [Ifosfamide] | > 10000 | > 10000 | > 10000 | > 10000 | > 10000 | > 10000 | > 10000 | > 10000 | > 10000 |  |  |  | 
Nc1ccccc1NC(=O)c1ccc(CNc2nccc(-c3cccnc3)n2)cc1 [Mocetinostat] | 291 | 738 | 313 | 381 | 246 | 340 | 1030 | 166 | 703 | 443 | 697 | 242 | 723
C[C@@H]1CN(CC(=O)Nc2ccc3c(c2)Cc2cccc(-c4cc(=O)cc(N5CCOCC5)o4)c2S3)C[C@H](C)O1 | 7360 | 8100 | 4210 | 4940 | 4490 | 4430 | 6110 | 3200 | 5660 | 3480 | 5880 | 6050 | 5660
CC[C@H](CC#N)OC(=O)N[C@@H](C)c1cccc(NC(=O)Nc2ccc(-c3cnco3)c(OC)c2)c1 [AVN944] | 622 |  | 117 | 104 | 166 | 103 | 138 | 117 |  | 2170 | 103 | 67.7 | 
COc1cc([C@@H]2c3cc4c(cc3[C@@H](O[C@@H]3O[C@@H]5CO[C@@H](C)O[C@H]5[C@H](O)[C@H]3O)[C@H]3COC(=O)[C@H]23)OCO4)cc(OC)c1O [Etoposide] | 137 |  | 73.2 | 134 | 646 | 435 | 1080 | 47.3 | 1920 | 743 | 161 | 615 | 1830
NC(=S)N/N=C/c1ncccc1N [Triapine] | 3720 |  | 1320 | 3580 | 748 | 642 | 3750 | 3560 |  | 1510 | 1450 | 3550 | 2490
CC(C)Oc1cc(Nc2nc(N[C@@H](C)c3ccc(F)cn3)ncc2Cl)n[nH]1 [AZ-23] |  |  |  |  |  |  |  |  | 606 | > 1000 |  |  | 
CC/C(=C(\c1ccc(O)cc1)c1ccc(OCCN(C)C)cc1)c1ccccc1 [4-hydroxytamoxifen] | 2130 |  | 2640 | 1690 | 2850 | 1290 | 2330 | 2700 | 2700 | 3750 | 2250 | 3890 | 3340
Cc1ccc(C(=O)Nc2ccc(CN3CCN(C)CC3)c(C(F)(F)F)c2)cc1C#Cc1cnc2cccnn12 [Ponatinib] | > 1000 | 415 | 213 | 156 | 425 | 270 | 121 | 96.1 | 335 | 55.3 |  |  | 240
COC(=O)N[C@@H](C)CNc1nccc(-c2cn(C(C)C)nc2-c2cc(Cl)cc(NS(C)(=O)=O)c2F)n1 [Encorafenib] |  | > 1000 |  |  |  | 34.3 |  |  | > 1000 |  |  |  | > 1000
O=C1NC(=O)[C@@H](c2cn3c4c(cccc24)CCC3)[C@@H]1c1c[nH]c2ccccc12 [Tivantinib] | 310 |  | 167 | 347 | 115 | 221 | 238 | 370 |  |  | 118 | 50.8 | 
Cc1ccc(-n2nc(C(C)(C)C)cc2NC(=O)Nc2ccc(OCCN3CCOCC3)c3ccccc23)cc1 [Doramapimod] |  | 2980 | 362 |  | 1910 | 2140 |  | 370 | 3230 | 2920 | 1300 |  | 3690
Cc1cccc(-c2nn3c(c2-c2ccnc4ccc(C(N)=O)cc24)CCC3)n1 [Galunisertib] | > 1000 | > 1000 |  |  |  |  |  | > 1000 | > 1000 |  | > 1000 |  | 
CN[C@@H](C)C(=O)N[C@H]1CN(C(=O)CC(C)C)CC[C@H]2CC[C@@H](C(=O)NC(c3ccccc3)c3ccccc3)N2C1=O [AT-406] |  | 1690 | 1920 |  |  | 1450 |  |  | 1410 | 1250 |  |  | 1230
C=CCN(/C=C1/C(=O)O[C@H](COC)[C@@]2(C)C1=C(O)C(=O)C1=C2[C@H](OC(C)=O)C[C@]2(C)C(=O)CC[C@@H]12)CC=C [Sonolisib] |  |  |  |  |  |  |  |  |  | 1630 |  |  | 1200
CN[C@@H](C)C(=O)N[C@H](C(=O)N1CCC[C@H]1c1nc(C(=O)c2ccc(F)cc2)cs1)C1CCCCC1 [LCL161] |  | 932 | 2940 | 1390 | 2900 | 251 |  |  | 772 | 2520 |  |  | 1040
O=S(=O)(c1cccc2cnccc12)N1CCCNCC1 [Fasudil] |  | 15900 | 6870 |  |  |  | 8760 |  | 10900 |  |  |  | 8170
CC(C)(C)c1nc(-c2cccc(NS(=O)(=O)c3c(F)cccc3F)c2F)c(-c2ccnc(N)n2)s1 [Dabrafenib] |  | > 2500 |  |  | > 2500 | 72.1 |  | > 2500 | > 2500 |  |  |  | 
COc1nc(N)nc2c1ncn2[C@@H]1O[C@H](CO)[C@@H](O)[C@@H]1O [Nelarabine] | > 10000 | 200 | 292 |  |  |  |  | 1810 | 322 | 38.6 |  |  | 406
CC[C@]1(O)C[C@H]2CN(CCc3c([nH]c4ccccc34)[C@@](C(=O)OC)(c3cc4c(cc3OC)N(C=O)[C@H]3[C@@](O)(C(=O)OC)[C@H](OC(C)=O)[C@]5(CC)C=CCN6CC[C@]43[C@@H]65)C2)C1 [Vincristine] | 3.41 |  | 7.9 | 3.38 | 9.88 | 3.14 | 3.6 | 2.9 |  |  | 5.45 | 4.74 | 
COc1cc(OC)c(/C=C/S(=O)(=O)Cc2ccc(OC)c(NCC(=O)O)c2)c(OC)c1 [Rigosertib] | 37.5 |  | 48.5 | 36.7 | 53.6 | 35.8 | 46.9 | 43 |  | 840 | 40.4 | 53.5 | 
C=CCn1c(=O)c2cnc(Nc3ccc(N4CCN(C)CC4)cc3)nc2n1-c1cccc(C(C)(C)O)n1 [MK1775] | 361 |  | 95.7 | 185 | 93.8 | 59.3 | 190 | 57.2 |  |  | 227 | 156 | 
Oc1nc(-c2ccc(C(F)(F)F)cc2)nc2c1CSCC2 [XAV-939] |  |  |  |  |  |  |  |  |  | > 10000 |  | 968 | 
C[C@@H]1C[C@H]2[C@@H]3CCC4=CC(=O)C=C[C@]4(C)[C@@]3(F)[C@@H](O)C[C@]2(C)[C@@]1(O)C(=O)CO [Dexamethasone] | > 10000 | 28.8 |  | 8.07 |  | 89.3 |  | 7.41 | 11.8 | 4.64 |  |  | 14.1
Cn1c(CCCC(=O)O)nc2cc(N(CCCl)CCCl)ccc21 [Bendamustine] |  | 2330 |  |  |  |  |  | 1420 | 2960 | 3780 | 2600 | 1680 | 3960
